From PMC12582325 (Proceedings of the National Academy of Sciences of the …, 2025)
Values joined by “and” are separate entries in the source; they are usually repeats but may differ in a detail not shown here. Equal entries are not always repeated. Where two headings read alike, the source gives them in different places. Where a SMILES comes first, the peptide text is derived from it.

How the values were obtained:
[1] = system: F. oxysporum microconidia; experiment: Germination of F. oxysporum microconidia; type: cell-based, Fusarium oxysporum f. sp. lycopersici 4287; set-up: Germination of F. oxysporum microconidia (data of Sup.Fig.10): unit not given here; settings: for Germination of F. oxysporum microconidia (data of Sup.Fig.10): 400 μM pheromone, 13 h, at least 300 spores counted
Experimental: For F. oxysporum microconidia production, the strain was grown for 3 to 4 d in liquid potato dextrose broth (PDB) at 28 °C and 170 rpm. Germination media ([10]) was used for assessing the spore germination. RE was prepared by removing 2-wk-old tomato plants from vermiculite and washing the roots to remove any adhering substrates ([11]).
Supplementary Figure 10. Germination of F. oxysporum microconidia after 13 h of incubation in Germination Media at a cell density of […] microconidia/mL. The assay was performed with 400 μM of pheromone. All points represent the average of three biological replicates in which at least 300 spores were counted. Statistical significance was determined through one-way analysis of variance (ANOVA) with Dunnett’s multiple comparisons (✱p ≤ 0.05).

B. bassiana = type: cell-based, Beauveria bassiana; settings: 20 hours
Bc.Ste2 [2] = type: cell-based, Botrytis cinerea; settings: 0.0005 μM Bc pheromone in combination with 10 μM peptide; four biological replicates; Fig. 2G
F. oxysporum germ tubes = settings: gradient of 400 μM pheromone against the solvent (50% methanol); 13 h; water-agar; three biological replicates; Fig. 5A
Experimental: For the B. bassiana and F. oxysporum chemotropism assay and plant infection assays the pheromones were dissolved in 50% (v/v) MeOH to reach a concentration of 4,000 μM.
Fungal chemotropism was conducted as previously described ([11]). For each compound or combination of compounds tested, 300 hyphal tips were scored. All experiments were performed in three biological replicates.

Bb.Ste2 [3] = type: cell-based, Beauveria bassiana
[4] = system: empty (strain lacking a GPCR); type: cell-based, Saccharomyces cerevisiae
Bc.Ste2 [5] = type: cell-based, Botrytis cinerea
Fg.Ste2 [6] = type: cell-based, Fusarium graminearum
Bb.Ste2 [7] = type: cell-based, Beauveria bassiana; remark: listed apart in the source
Sc Ste2 = molecular target: T1, Sc Ste2 (Saccharomyces cerevisiae, UniProt D6VTK4); type: cell-based
T1 construct: The native Sc system and an empty construct were added as positive and negative controls; endogenous in cells; host or cells: Saccharomyces cerevisiae wild-type control strains GEN18 (MATa) and GEN27 (MATα)
T1 sequence (D6VTK4 1-431): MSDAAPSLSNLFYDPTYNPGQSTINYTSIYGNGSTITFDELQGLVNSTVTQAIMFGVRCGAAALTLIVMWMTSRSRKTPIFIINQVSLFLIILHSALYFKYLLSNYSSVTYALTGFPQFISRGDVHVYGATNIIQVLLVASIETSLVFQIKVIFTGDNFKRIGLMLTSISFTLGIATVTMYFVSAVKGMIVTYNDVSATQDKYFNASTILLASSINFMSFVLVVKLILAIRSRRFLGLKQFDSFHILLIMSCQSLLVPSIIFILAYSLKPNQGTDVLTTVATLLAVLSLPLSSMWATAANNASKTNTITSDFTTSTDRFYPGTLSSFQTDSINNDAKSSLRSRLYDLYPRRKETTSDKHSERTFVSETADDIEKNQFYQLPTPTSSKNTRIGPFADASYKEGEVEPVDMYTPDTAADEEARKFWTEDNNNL

Mo Ste2 GPCR = type: cell-based, Magnaporthe oryzae
Ca.Ste2 = type: cell-based, Candida albicans
Nc Ste2 GPCR = type: cell-based, Neurospora crassa
Hj Ste2 GPCR (Hj.Hpr2) = type: cell-based, Hypocrea jecorina
Fo.Ste2 [8] = type: cell-based, Fusarium oxysporum
Fg.Ste2 [9] = type: cell-based, Fusarium graminearum; remark: listed apart in the source
Bc.Ste2 [10] = type: cell-based, Botrytis cinerea; remark: listed apart in the source
Fo.Ste2 [11] = type: cell-based, Fusarium oxysporum; remark: listed apart in the source
Fg.Ste2 [12] = settings: SC-AS/Urea compared to SC media with ammonium sulfate alone
Hj.Hpr2 = type: cell-based, Hypocrea jecorina
[13] = system: no_GPCR (negative control lacking a GPCR); type: cell-based, Saccharomyces cerevisiae; settings: SC-AS/Urea compared to SC media with ammonium sulfate alone
Fo.Ste2 [14] = type: cell-based, Fusarium oxysporum; remark: listed apart in the source
Bb.Ste2 [15] = type: cell-based, Beauveria bassiana; remark: listed apart in the source
[16] = Fig. 1D mating matrix, pheromone secreted by MATa strain, MATα strain lacking a GPCR (empty), deep well plate, 20 h coculture
[17] = Fig. 1D mating matrix, pheromone secreted by MATa strain, GPCR in MATα strain, deep well plate, 20 h coculture, three technical plating replicates

Molecule: WRWPCCWGQT [Scrambled]
- Germination of F. oxysporum microconidia (data of Sup.Fig.10) ([1]; biological replicate 1 (first line)): 53,95
- Germination of F. oxysporum microconidia (data of Sup.Fig.10) ([1]; biological replicate 2 (second line)): 33,33
- Germination of F. oxysporum microconidia (data of Sup.Fig.10) ([1]; biological replicate 3 (third line)): 27,4
- Mean Diff, Solvent vs. peptide ([1]; Sup.Fig.10, Dunnett's multiple comparisons test, n = 3): 5,543
- Mean 2 (peptide), germination ([1]; Sup.Fig.10, Solvent control mean 43,77, mean of n = 3): 38,23
- Chemotropic response in Bb germ tubes (B. bassiana): did not
- Effect on activation of Bc.Ste2 by Bc pheromone, in words (Bc.Ste2 [2]): do not differ significantly from Bc alone
- Chemotropic response in F. oxysporum germ tubes (F. oxysporum germ tubes): did not

Molecule: NCCCC[C@H](NC(=O)[C@H](CO)NC(=O)CNC(=O)[C@H](CS)NC(=O)[C@@H](N)Cc1c[nH]c2ccccc12)C(=O)NCC(=O)N[C@@H](CCC(N)=O)C(=O)N1CCC[C@H]1C(=O)N[C@@H](CS)C(=O)N[C@@H](Cc1c[nH]c2ccccc12)C(=O)O [A2] (H-WCGSKGQPCW-OH; N-terminus and C-terminus assumed)
- Activation of Bb.Ste2 biosensor, in words (Bb.Ste2 [3]): higher EC50 values
- Hillslope (Bb.Ste2 [3]): 1.362
- logEC50 (Bb.Ste2 [3]): -3.661

Molecule: CC(C)C[C@H](NC(=O)[C@H](CS)NC(=O)[C@@H](N)Cc1c[nH]c2ccccc12)C(=O)N[C@@H](CCCNC(=N)N)C(=O)N[C@H](C(=O)NCC(=O)N[C@@H](CCC(N)=O)C(=O)N1CCC[C@H]1C(=O)N[C@@H](CS)C(=O)N[C@@H](Cc1c[nH]c2ccccc12)C(=O)O)C(C)C [A1] (H-WCLRVGQPCW-OH; N-terminus and C-terminus assumed)
- logEC50 (Bb.Ste2 [3]): -9.317

Molecule: QWCRIHGQSCW [Nc, alpha pheromone of Neurospora crassa]
- Diploid frequency (%) [4, 16]: 0.1%
- Diploid frequency (%) (Bc.Ste2 [5]): 0.1%
- Diploid frequency (%) (Fg.Ste2 [6]; [17]): 0.0%
- Diploid frequency (%) (Bb.Ste2 [7]; [17]): 0.0%
- Diploid frequency (%) (Sc Ste2): 0.0%
- Diploid frequency (%) (Mo Ste2 GPCR; [17]): 0.0%
- Diploid frequency (%) (Ca.Ste2): 0.0%
- Diploid frequency (%) (Nc Ste2 GPCR): 2.8%
- Diploid frequency (%) (Hj Ste2 GPCR (Hj.Hpr2)): 0.0%
- Diploid frequency (%) (Fo.Ste2 [8]): 0.0%

Molecule: WCIQSGQPCW [A3, Fg.Ste2 - Agonist candidate from the YPL1 pheromone library]
- Sup.Fig.3A Fg.Ste2 biosensor response, group mean (Fg.Ste2 [9]; Control mean 1, mean of n = 4): 1.455
- Activation of Fg.Ste2 biosensor, in words (Fg.Ste2 [9]; chemically synthesized pheromone): almost no effect

Molecule: CC(C)C[C@H](NC(=O)[C@H](CC(C)C)NC(=O)[C@H](CS)NC(=O)[C@@H](N)Cc1c[nH]c2ccccc12)C(=O)N[C@@H](CC(=O)O)C(=O)NCC(=O)N[C@@H](CCC(N)=O)C(=O)N1CCC[C@H]1C(=O)N[C@@H](CS)C(=O)N[C@@H](Cc1c[nH]c2ccccc12)C(=O)O [A6] (H-WCLLDGQPCW-OH; N-terminus and C-terminus assumed)
- Hillslope (Bc.Ste2 [10]): 0.5567
- logEC50 (Bc.Ste2 [10]): -8.01
- Sup.Fig.3A Bc.Ste2 biosensor response, group mean (Bc.Ste2 [10]; 10 μM): 1.225

Molecule: CC(C)C[C@H](NC(=O)[C@H](CS)NC(=O)[C@@H](N)Cc1c[nH]c2ccccc12)C(=O)N[C@@H](Cc1c[nH]c2ccccc12)C(=O)N[C@@H](CCCNC(=N)N)C(=O)NCC(=O)N[C@@H](CCC(N)=O)C(=O)N1CCC[C@H]1C(=O)N[C@@H](CS)C(=O)N[C@@H](Cc1c[nH]c2ccccc12)C(=O)O [A5] (H-WCLWRGQPCW-OH; N-terminus assumed)
- EC50 fold lower than that of the native Fo alpha pheromone (Fo.Ste2 [11]): at least 13 fold
- logEC50 (Fo.Ste2 [11]): -8.637

Molecule: WHWLQLKPGQPMY [Sc, alpha pheromone of Saccharomyces cerevisiae]
- Diploid frequency (%) [4, 16]: 0.2%
- Diploid frequency (%) (Bc.Ste2 [5]): 0.1%
- Diploid frequency (%) (Fg.Ste2 [6]; [17]): 0.0%
- Diploid frequency (%) (Bb.Ste2 [7]; [17]): 0.0%
- Diploid frequency (%) (Sc Ste2): 90.9%
- Diploid frequency (%) (Mo Ste2 GPCR; [17]): 0.2%
- Diploid frequency (%) (Ca.Ste2): 0.0%
- Diploid frequency (%) (Nc Ste2 GPCR): 0.0%
- Diploid frequency (%) (Hj Ste2 GPCR (Hj.Hpr2)): 0.0%
- Diploid frequency (%) (Fo.Ste2 [8]): 0.0%

Molecule: NC(N)=O [Urea]
- Fold decrease in the abundance of diploids with Fg.Ste2 (Fg.Ste2 [12]): 0.8 fold
- Fold increase of diploids containing Hj.Hpr2 (Hj.Hpr2): 20 fold
- Effect on abundance of diploids with the control strain no_GPCR [13]: did not affect
- Effect on abundance of diploids with Fo.Ste2 (Fo.Ste2 [14]): did not affect
- Increase of diploids containing Bb.Ste2 (Bb.Ste2 [15]): fourfold

Molecule: WCYRIGEPCW [Hj, alpha pheromone of Hypocrea jecorina (Trichoderma reseei)]
- Diploid frequency (%) [4]: 0.1%
- Sup.Fig.7B - Hj, group mean (Hj.Hpr2; pH=6): 0.1033
- Sup.Fig.7B - Hj, group mean (Hj.Hpr2; pH=7): 0.03
- qPCR, Hj + Hj (Hj.Hpr2; ph=7): 0.0033
- Diploid frequency (%) (Bc.Ste2 [5]): 0.1%
- Diploid frequency (%) (Fg.Ste2 [6]): 0.0%
- Diploid frequency (%) (Bb.Ste2 [7]): 4.9%
- Diploid frequency (%) (Sc Ste2): 0.0%
- Diploid frequency (%) (Mo Ste2 GPCR): 0.1%
- Diploid frequency (%) (Ca.Ste2): 0.1%
- Diploid frequency (%) (Nc Ste2 GPCR): 0.1%
- Diploid frequency (%) (Hj Ste2 GPCR (Hj.Hpr2)): 0.1%
- diploid frequency (%), Plates, Hj (Hj Ste2 GPCR (Hj.Hpr2)): 0.67% and 0.16% and 0.05% and 1.62% and 0.03% and 1.07% and 0.1% and 0.01%
- Diploid frequency (%) (Fo.Ste2 [8]): 0.0%
